Data as given in ChEMBL document CHEMBL1136875, “Regioselective preparation of 5-hydroxypropranolol and 4'-hydroxydiclofenac with a fungal peroxygenase” (Bioorg Med Chem Lett, 2009).

Tests used:
[1] = biological target: T1, Aromatic peroxygenase (Cyclocybe aegerita) (UniProt B9W4V6); assay: Activity of Agrocybe aegerita peroxygenase assessed as conversion of diclofenac to 4'-hydroxydiclofenac at 5 mM in presence of 5 mM H2O2 and 4 mM ascorbic acid
T1 sequence (whole entry): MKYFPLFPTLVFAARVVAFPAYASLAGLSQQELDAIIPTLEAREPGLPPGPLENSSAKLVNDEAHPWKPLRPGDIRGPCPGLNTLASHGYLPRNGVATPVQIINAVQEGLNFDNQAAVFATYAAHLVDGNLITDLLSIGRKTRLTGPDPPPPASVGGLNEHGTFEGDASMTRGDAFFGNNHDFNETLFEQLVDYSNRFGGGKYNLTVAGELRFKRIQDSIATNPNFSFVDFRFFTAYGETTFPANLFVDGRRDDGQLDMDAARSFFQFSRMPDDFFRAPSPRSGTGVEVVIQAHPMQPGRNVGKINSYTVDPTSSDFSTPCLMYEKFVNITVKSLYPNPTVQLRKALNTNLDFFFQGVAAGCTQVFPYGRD

Priestia megaterium [2] = assay: Activity of Bacillus megaterium CYP450 D6H10 mutant assessed as conversion of diclofenac to 4'-hydroxydiclofenac at 5 mM in presence of 1 mM H2O2 and 4 mM ascorbic acid
Priestia megaterium [3] = assay: Activity of Bacillus megaterium CYP450 D6H10 mutant assessed as conversion of propranolol to 5-hydroxypropranolol at 5 mM in presence of 1 mM H2O2 and 4 mM ascorbic acid
[4] = biological target: T1, Aromatic peroxygenase (Cyclocybe aegerita); assay: Activity of Agrocybe aegerita peroxygenase assessed as conversion of propranolol to 5-hydroxypropranolol at 5 mM in presence of 5 mM H2O2 and 4 mM ascorbic acid

Row | Activity [1] [%] | Activity (Priestia megaterium [2]) [%] | Activity (Priestia megaterium [3]) [%] | Activity [4] [%] | Structure (SMILES)
1 | 30 | 30 |  |  | O=C(O)Cc1ccccc1Nc1c(Cl)cccc1Cl
2 |  |  | 0.5 | 13.6 | CC(C)NCC(O)COc1cccc2ccccc12 (centres undefined)
